“And” between values parts separate entries of the source, which are not always exact repeats. Equal entries are not always repeated.
What was measured:
A/PR/8/34 virus [1] = assay: Influenza A viral growth assay (viral titer of culture media); format: cell-based, influenza A H1N1 virus; set-up: viral titer of culture media, individual replicate / viral titer of culture media, ave: unit not given here; settings: A/PR/8/34 (PR8), 12.5uM, average of #1-3 exp (n=9)
A/WSN/33 virus [2] = assay: Immunofluorescence staining of viral NP in influenza A virus-infected MDCK cells; settings: WSN
A/WSN/33 virus [3] = assay: Influenza A viral growth assay (viral titer of culture media); format: cell-based, influenza A H1N1 virus; settings: A/WSN/33 (WSN), 12.5uM, average of #1-3 exp (n=9)
A/PR/8/34 virus [4] = format: cell-based; settings: 12.5 μM, 24h WB
A/PR/8/34 virus [5] = assay: RT-qPCR of viral mRNAs (NP, NS1, PA, PB1, PB2, M2) in infected MDCK cells; format: cell-based, influenza A H1N1 virus
Nrf2 = Nrf2 reporter assay (dual luciferase system) in MDCK cells; format: cell-based, canine; settings: 12.5uM, relative to DMSO trans+
Protocol: An Nrf2 reporter assay based on the dual luciferase system was performed as previously described. The plasmid pNQO1-ARE (antioxidant response element)-Fluc, provided by Yamamoto M., expressed a Firefly luciferase gene driven by Nrf2 activation, while the plasmid pRL-TK-Rluc vector (Promega, CA, USA) expressed a Renilla luciferase gene driven by the herpes simplex viral thymidine kinase promoter as an internal control. MDCK cells were seeded in a 24-well plate at 1 × 10^5 cells/well and transfected with pNQO1-ARE-luc (0.25 μg) and pRL-TK-Rluc (0.25 μg). At 24 h post-transfection, the cells were treated with 12.5 μM cyclobakuchiols A–D in the infection medium at 37°C under 5% CO2. DMSO (0.125%) and 12.5 μM 1 were used as negative and positive controls, respectively. Total RNA was extracted from the MDCK cell lysates after 24 h of incubation. The levels of Firefly and Renilla luciferase mRNAs were analyzed by RT-qPCR and normalized to that of β-actin mRNA.

[6] = tested on: NAD(P)H quinone oxidoreductase 1 (Nqo1); assay: RT-qPCR of Nqo1 mRNA in MDCK cells with or without A/PR/8/34 virus; format: cell-based, canine; settings: 12.5uM, MDCK, relative to virus - DMSO; for NQO1 Canis lupus mRNA, ave: ave of #1-3 exp; for NQO1 Canis lupus mRNA, individual replicates: replicates 1-3 of #1, #2, #3 exp, listed as Cyclobakuchiol C
A/PR/8/34 virus [7] = assay: Immunofluorescence staining of viral NP in influenza A virus-infected MDCK cells; settings: for NP/DAPI (%) ave: average of 9 wells
Protocol: MDCK cells were seeded on a 96-well plate at 1 × 10^4 cells/well. […] Each mixture was added to the cells at 37°C in the presence of 5% CO2. […] After influenza A viral infection for 24 h, the cells were fixed with 4% paraformaldehyde in phosphate-buffered saline (PBS) for 30 min at 4°C and subsequently permeabilized by the addition of 0.3% Triton X-100 for 20 min at 25°C. A mouse primary antibody was used to detect the NP of A/PR/8/34 or A/WSN/33 viruses (FluA-NP 4F1; SouthernBiotech, AL, USA). Alexa Fluor488-conjugated goat anti-mouse IgG (H + L) antibody (Thermo Fisher Scientific) was used as the secondary antibody. Cell nuclei were then stained using diamidino-2-phenylindole (DAPI) (Thermo Fisher Scientific). Wells were photographed using a fluorescence microscope (BIOREVO BZ-X700; Keyence, Osaka, Japan). The proportion of influenza A NP-positive cells per DAPI-positive cells was calculated based on measurements recorded using BZ-X Analyzer software (Keyence).

[8] = tested on: canine interferon-β (Ifn-β); assay: RT-qPCR of Ifn-β mRNA in MDCK cells with or without A/PR/8/34 virus; format: cell-based; settings: 12.5uM, relative to virus - DMSO; for MDCK IFN-b mRNA, ave: ave of #1-3 exp; for MDCK IFN-b mRNA, individual replicates: replicates 1-3 of #1, #2, #3 exp, listed as Cyclobakuchiol C
[9] = single experiment, listed as cyclo C
[10] = MDCK cells, PR8 virus, relative to DMSO (about 1), ave of #1-3 exp (9 values)
[11] = MDCK cells, PR8 virus, relative to DMSO, replicates 1-3 of #1, #2, #3 exp, listed as Cyclobakuchiol C

## C=C[C@]1(C)CCC(C(C)(C)O)C(c2ccc(O)cc2)C1 (stereo in doubt) [cyclobakuchiol C]
A/PR/8/34 virus [1]; 12h
  viral titer of culture media, ave: 33333.3
A/PR/8/34 virus [1]; 24h
  viral titer of culture media, ave: 52222.2
A/PR/8/34 virus [1]; 48h
  viral titer of culture media, ave: 37777.8
A/PR/8/34 virus [1]; 72h
  viral titer of culture media, ave: 43333.3
A/WSN/33 virus [2]; 3.13uM, ave of 9 values (3 exp)
  NP/DAPI (%) ave: 25.0115%
A/WSN/33 virus [2]; 6.25uM, ave of 9 values (3 exp)
  NP/DAPI (%) ave: 26.7813%
A/WSN/33 virus [2]; 12.5uM, ave of 9 values (3 exp)
  NP/DAPI (%) ave: 26.2263%
A/WSN/33 virus [2]; 25uM, ave of 9 values (3 exp)
  NP/DAPI (%) ave: 34.9195%
A/WSN/33 virus [2]; ave summary, 3.13%
  NP/DAPI (%) ave: 25.0115%
A/WSN/33 virus [2]; ave summary, 6.25%
  NP/DAPI (%) ave: 26.7813%
A/WSN/33 virus [2]; ave summary, 12.50%
  NP/DAPI (%) ave: 26.2263%
A/WSN/33 virus [2]; ave summary, 25%
  NP/DAPI (%) ave: 34.9195%
A/WSN/33 virus [3]; 12h
  viral titer of culture media, ave: 8288.89
A/WSN/33 virus [3]; 24h
  viral titer of culture media, ave: 21277778
A/WSN/33 virus [3]; 48h
  viral titer of culture media, ave: 246888889
A/WSN/33 virus [3]; 72h
  viral titer of culture media, ave: 155211111
A/PR/8/34 virus [4]; average of 3 experiments
  NP/b-actin ave: 0.8052
  NS1/b-actin ave: 0.5534
A/PR/8/34 virus [4]; [9]
  NP mean (western blot signal intensity, ImageJ): 91.764 and 95.052 and 111.845
  NP/b-actin: 0.819 and 0.7 and 0.8964
  NS1/b-actin: 0.4287 and 0.5327 and 0.6988
  NS1 mean (western blot signal intensity, ImageJ): 69.827 and 74.096 and 58.545
A/PR/8/34 virus [5]; MDCK PR8, NP mRNA, relative (DMSO about 1), average of #1-3 exp (n=9)
  PR8 NP gene expression qPCR, ave: 0.0715
A/PR/8/34 virus [5]; MDCK PR8, NP mRNA, relative (DMSO about 1), replicates of #1-3 exp, listed as Cyclobakuchiol C
  PR8 NP gene expression qPCR, individual replicate: 0.02965 and 0.0515 and 0.04036 and 0.08601 and 0.1343 and 0.1201 and 0.1206 and 0.03078 and 0.03024
A/PR/8/34 virus [5]; MDCK PR8, NS1 mRNA, relative (DMSO about 1), average of #1-3 exp (n=9)
  PR8 NS1 gene expression qPCR, ave: 0.04238
A/PR/8/34 virus [5]; MDCK PR8, NS1 mRNA, relative (DMSO about 1), replicates of #1-3 exp, listed as Cyclobakuchiol C
  PR8 NS1 gene expression qPCR, individual replicate: 0.02453 and 0.03462 and 0.02897 and 0.02312 and 0.08062 and 0.06227 and 0.07687 and 0.03138 and 0.01906
A/PR/8/34 virus [5]; MDCK PR8, PA mRNA, relative (DMSO about 1), average of #1-3 exp (n=9)
  PR8 PA gene expression qPCR, ave: 0.04976
A/PR/8/34 virus [5]; MDCK PR8, PA mRNA, relative (DMSO about 1), replicates of #1-3 exp, listed as Cyclobakuchiol C
  PR8 PA gene expression qPCR, individual replicate: 0.02841 and 0.03504 and 0.0209 and 0.04366 and 0.1014 and 0.08076 and 0.0804 and 0.03232 and 0.02491
A/PR/8/34 virus [5]; [10]
  PR8 M2 gene expression qPCR, ave: 0.05203
  PR8 PB1 gene expression qPCR, ave: 0.0394
  PR8 PB2 gene expression qPCR, ave: 0.05178
A/PR/8/34 virus [5]; [11]
  PR8 M2 gene expression qPCR, individual replicates: 0.02539 and 0.04593 and 0.02488 and 0.06301 and 0.1078 and 0.07697 and 0.07009 and 0.03046 and 0.02377
  PR8 PB1 gene expression qPCR, individual replicates: 0.02851 and 0.01826 and 0.01255 and 0.01866 and 0.09078 and 0.07015 and 0.07353 and 0.02182 and 0.02034
  PR8 PB2 gene expression qPCR, individual replicates: 0.02749 and 0.04527 and 0.0229 and 0.05473 and 0.1042 and 0.07786 and 0.07787 and 0.03099 and 0.02468
Nrf2; ave of #1-3 exp
  pNQO1-ARE-Luc NRF2 reporter assay, ave: 1.343
Nrf2; two values each of #1, #2, #3 exp, listed as Cyclobakuchiol C
  pNQO1-ARE-Luc NRF2 reporter assay, individual replicates: 1.496 and 1.13 and 1.492 and 1.034 and 1.043 and 1.865
[6]; virus + (PR8)
  NQO1 Canis lupus mRNA, ave: 1.3
  NQO1 Canis lupus mRNA, individual replicates: 1.5721 and 1.53 and 1.546 and 1.742 and 0.864 and 0.8958 and 0.9507 and 1.371 and 1.2312
[6]; virus -
  NQO1 Canis lupus mRNA, ave: 1.195
  NQO1 Canis lupus mRNA, individual replicates: 1.246 and 1.375 and 1.298 and 1.334 and 1.006 and 1.078 and 1.116 and 1.24 and 1.059
A/PR/8/34 virus [7]; A/PR/8/34, 3.13 uM
  NP/DAPI (%) ave: 6.545%
A/PR/8/34 virus [7]; A/PR/8/34, 6.25 uM
  NP/DAPI (%) ave: 2.732%
A/PR/8/34 virus [7]; A/PR/8/34, 12.5 uM
  NP/DAPI (%) ave: 1.281%
A/PR/8/34 virus [7]; A/PR/8/34, 25 uM
  NP/DAPI (%) ave: 1.024%
A/PR/8/34 virus [7]; Influenza A virus, PR/8, MDCK, read-out: half maximal (50%) inhibitory concentration (IC50)
  IC50: 4.6 ± 2.2 µM
[8]; virus +
  MDCK IFN-b mRNA, ave: 8.927
  MDCK IFN-b mRNA, individual replicates: 3.309 and 15.7023 and 10.0086 and 14.1468 and 10.7403 and 6.351 and 9.878 and 6.251 and 3.957
[8]; virus -
  MDCK IFN-b mRNA, ave: 1.684
  MDCK IFN-b mRNA, individual replicates: 0.8094 and 4.073 and 2.562 and 3.148 and 0.7696 and 1.281 and 1.389 and 0.8375 and 0.2824

Reference: publication PMC7997032, “Organic synthesis and anti-influenza A virus activity of cyclobakuchiols A, B, C, and D” (PLoS ONE, 2021)
